Data on 49 compounds can be found in ChEMBL document CHEMBL3045733, “3D-QSAR and molecular docking studies of hydroxamic acids as peptide deformylase inhibitors” (Med Chem Res, 2012).

This test can be described thus: Inhibition of peptide deformylase using N-formylmethionine-alanine-serineas substrate incubated for 10 min before substrate addition by PDF-FDH coupled assay.

SMILES strings stand for the structures.

Turning to `CCCC[C@@H](C(=O)N1CCC[C@H]1C(=O)N1CCCC1)[C@H](O)C(=O)NO`, the negative logarithm of the IC50 (pIC50) – broadly, the IC50 on a negative log10 scale, so that one unit is a factor of ten – is listed as 7.62. `CCCC[C@@H](C(=O)N1CCC[C@H]1C(=O)N1CCCCC1)[C@H](O)C(=O)NO` gave a pIC50 of 7.89.

`CCCC[C@@H](C(=O)N1CCC[C@H]1C(=O)N1CCN(c2ccccc2F)CC1)[C@H](O)C(=O)NO` registered a pIC50 of 8.3. `CCCC[C@@H](C(=O)N1CCC[C@H]1C(=O)N1CCN(c2ncccn2)CC1)[C@H](O)C(=O)NO` showed a pIC50 of 8.52. In the case of `CCCC[C@@H](C(=O)N1CC[C@H]1C(=O)NCCC)[C@H](O)C(=O)NO`, the pIC50 was found to be 8.17. `CCCC[C@@H](C(=O)N1CCCC[C@H]1C(=O)NCCC)[C@H](O)C(=O)NO` had a negative logarithm of the IC50 (pIC50) of 8.17. As for `CCCC[C@@H](C(=O)N1CCC[C@H]1C(=O)NC)[C@@H](F)C(=O)NO`, the figure is 7.57; as for `Cc1nc(NC(=O)[C@@H]2CCCN2C(=O)N(CCC2CCCC2)CC(=O)NO)sc1C`, 8.7; as for `O=C(CN(CCC1CCCC1)C(=O)N1CCC[C@H]1C(=O)Nc1ccc2c(c1)OCO2)NO`, 8.1. Compound `O=C(CN(CCC1CCCC1)C(=O)N1CCC[C@H]1C(=O)Nc1cccc(O)c1)NO` returned a pIC50 of 7.77. Take `O=C(CN(CCC1CCCC1)C(=O)N1CCC[C@H]1C(=O)Nc1cnccn1)NO`: the pIC50 turned out to be 7.27. As for `O=C(CN(CCC1CCCC1)C(=O)N1CCC[C@H]1C(=O)Nc1ncccn1)NO`, the figure is 7.68; as for `O=C(CN(CCC1CCCC1)C(=O)N1CCC[C@H]1C(=O)Nc1nccc(-c2ccccc2)n1)NO`, 7.17. As for `CC(C)CCN(CC(=O)NO)C(=O)N1CCC[C@H]1C(=O)Nc1nccs1`, the figure is 6.49.

The compound `Cc1nc(NC(=O)[C@@H]2CCCN2C(=O)N(CCC(C)C)CC(=O)NO)sc1C` gave a negative logarithm of the IC50 (pIC50) of 8.52. Then `CC(C)CCN(CC(=O)NO)C(=O)N1CCC[C@H]1C(=O)Nc1ccc2c(c1)OCO2`, with 7.96. As for `Cc1nnc(NC(=O)[C@@H]2CCCN2C(=O)N(CCC(C)C)CC(=O)NO)s1`, the figure is 7.92; as for `CCc1nnc(NC(=O)[C@@H]2CCCN2C(=O)N(CCC(C)C)CC(=O)NO)s1`, 7.74; as for `CC(C)CCN(CC(=O)NO)C(=O)N1CCC[C@H]1C(=O)Nc1nnc(-c2ccccc2)s1`, 7.01. On to `CNC(=O)[C@@H]1CCCN1C(=O)N(CCC(C)C)CC(=O)NO`, for which the pIC50 came out at 7.21.

`CC(C)CCNC(=O)[C@@H]1CCCN1C(=O)N(CCC(C)C)CC(=O)NO`: the pIC50 is listed as 7.92. As for `Cc1cnc(NC(=O)[C@@H]2CCCN2C(=O)N(CCC(C)C)CC(=O)NO)s1`, the figure is 7.2; as for `CCCC[C@H](CC(=O)NO)C(=O)N1CCC[C@H]1C(=O)NC`, 8. Then `CCCC[C@H](CC(=O)NO)C(=O)N1CCC[C@H]1C(=O)Nc1nc2ccccc2s1`, with 8.52. As for `CCCC[C@H](CC(=O)NO)C(=O)N1CCC[C@H]1C(=O)Nc1nc(-c2ccccc2)cs1`, the negative logarithm of the IC50 (pIC50) was determined as 8.04. As for `CCCC[C@@H](C(=O)N1CCC[C@H]1C(=O)OC(C)(C)C)[C@@H](O)C(=O)NO`, the figure is 8.22; as for `CCCC[C@@H](C(=O)N1CCC[C@H]1C(=O)OC(C)(C)C)[C@@H](OC)C(=O)NO`, 7.3.

In the case of `CCCC[C@@H](C(=O)N1CCC[C@H]1C(=O)OC(C)(C)C)[C@H](OS(=O)(=O)O)C(=O)NO`, the pIC50 was 7.52. As for `CCCC[C@@H](C(=O)N1CCC[C@H]1C(=O)NCCC)[C@H](F)C(=O)NO`, the figure is 7.89. Consider `CCCCNC(=O)[C@@H]1CCCN1C(=O)[C@H](CCCC)[C@H](F)C(=O)NO`, for which the negative-log IC50 (pIC50) was 7.8.

For `CCCCCNC(=O)[C@@H]1CCCN1C(=O)[C@H](CCCC)[C@H](F)C(=O)NO`, the negative logarithm of the IC50 (pIC50) stood at 7.89. Compound `C=CCNC(=O)[C@@H]1CCCN1C(=O)[C@H](CCCC)[C@@H](F)C(=O)NO` registered a negative logarithm of the IC50 (pIC50) of 7.8. Then `CCCC[C@@H](C(=O)N1CCC[C@H]1C(=O)NCC(O)CC)[C@H](F)C(=O)NO` (some centres undefined), with 8.15.

For the compound `CCCC[C@@H](C(=O)N1CCC[C@H]1C(=O)NC1CCCCC1)[C@H](F)C(=O)NO`, the negative logarithm of the IC50 (pIC50) stood at 8.04.

`CCCC[C@@H](C(=O)N1CCC[C@H]1C(=O)Nc1nc(C)c(C)s1)[C@H](F)C(=O)NO` yielded a negative-log IC50 (pIC50) of 8.7. `CCCC[C@@H](C(=O)N1CCC[C@H]1C(=O)Nc1nc(C)c(C)s1)[C@@H](F)C(=O)NO` had a pIC50 of 8.7. `CCCC[C@@H](C(=O)N1CCC[C@H]1C(=O)Nc1ccc(Cl)c(Cl)c1)[C@H](F)C(=O)NO` came in with a pIC50 of 9. Then `CCCC[C@@H](C(=O)N1CCC[C@H]1C(=O)N1CCC1)[C@H](F)C(=O)NO`, with 7.54; and `CCCC[C@@H](C(=O)N1CCC[C@H]1C(=O)N1CCCCC1)[C@H](F)C(=O)NO`, with 7.66.

For the compound `CCCC[C@@H](C(=O)N1CCC[C@H]1C(=O)N1CCOCC1)[C@H](F)C(=O)NO`, the pIC50 stood at 7.89. As for `CCCC[C@@H](C(=O)N1CCC[C@H]1C(=O)N1CCN(c2ccccc2F)CC1)[C@H](F)C(=O)NO`, the figure is 8.22. On to `CCCC[C@@H](C(=O)N1CCC[C@H]1C(=O)N1CCN(c2ncccn2)CC1)[C@H](F)C(=O)NO`, for which the pIC50 turned out to be 8.22. Take `CCCC[C@@H](C(=O)N1CCC[C@H]1C(=O)NC)[C@H](O)C(=O)NO`: the pIC50 is 8. Then `CCCC[C@@H](C(=O)N1CCC[C@H]1C(=O)NCCC)[C@H](O)C(=O)NO`, with 8.1; and `CCCCCNC(=O)[C@@H]1CCCN1C(=O)[C@H](CCCC)[C@H](O)C(=O)NO`, with 8.1. Then `CCCC[C@@H](C(=O)N1CCC[C@H]1C(=O)NC(C)C)[C@H](O)C(=O)NO`, with 8.15.

On to `CCCC[C@@H](C(=O)N1CCC[C@H]1C(=O)NC(C)(C)CC)[C@H](O)C(=O)NO`, for which the negative logarithm of the IC50 (pIC50) stood at 8.1. Then `CCCC[C@@H](C(=O)N1CCC[C@H]1C(=O)NC1CCCCC1)[C@H](O)C(=O)NO`, with 8.52. `CCCC[C@@H](C(=O)N1CCC[C@H]1C(=O)N1CCC1)[C@H](O)C(=O)NO` showed a negative-log IC50 (pIC50) of 7.77.
